Results taken from paper PMC6273491, “Two New Oleanane-Type Saponins with Anti-Proliferative Activity from Camellia oleifera Abel. Seed Cake” (Molecules, 2016).
pIC50: −log10 of the molar value.

How the values were obtained:
Type in all cases: cell-based
[1] = system: five human tumor cell lines (BEL-7402, BGC-823, MCF-7, HL-60 and KB); test: MTT anti-proliferative assay, panel of five human tumor cell lines; details: 72 h treatment, range across BEL-7402, BGC-823, MCF-7, HL-60, KB, read-out: anti-proliferative activity IC50 values, range over five cell lines
Method: (§1) The isolated Compounds 1, 2 and total seed cake saponins (C. oleifera) were tested against five human tumor cell lines (human hepatocellular carcinoma cells BEL-7402, human gastric carcinoma cells BGC-823, human breast cancer cells MCF-7, human promyelocytic leukemia cells HL-60 and human oral epidermoid carcinoma cells KB) using the MTT in vitro assay. Taxol, an anticancer agent, was used as the positive control.
(§2) The procedure for the anti-proliferative activity assay was performed according to the MTT reduction method using the human tumor cell lines BEL-7402, BGC-823, MCF-7, HL-60 and KB (Nanjing KeyGEN BioTECH Co., LTD, Jiangsu, China). In brief, the human tumor cell lines in culture medium (100 μL) were placed in a cell of a 96-well plate at a concentration of 4 × 10^3 cells/mL and incubated at 37 °C in 5% CO2 for 24 h. After 24 h, an additional 100 μL of complete medium with either: no additions (negative control), 0.1% DMSO (solvent control), 10 μg/mL Taxol (positive control), or different concentrations (0.391, 0.781, 1.562, 3.125, 6.25, 12.5, 25 and 50 μM) of 1 or 2 or total saponins (0.391, 0.781, 1.562, 3.125, 6.25, 12.5, 25 and 50 μg/mL). The treated cells were incubated as above for 72 h. […] The optical density (OD) of each well was measured at 490 nm using a Tunable Microplate Reader (EL-x800, BioTek Instruments, Winooski, VT, USA). […]

[2] = system: human oral epidermoid carcinoma cells KB; test: MTT anti-proliferative assay, KB; details: 72 h treatment, read-out: Cell Lines IC50 KB
Method: as §1, §2

[3] = system: human hepatocellular carcinoma cells BEL-7402; test: MTT anti-proliferative assay, BEL-7402; details: 72 h treatment, read-out: Cell Lines IC50 BEL-7402
Method: as §1, §2

[4] = system: human breast cancer cells MCF-7; test: MTT anti-proliferative assay, MCF-7; details: MCF7, 72 h treatment, read-out: Cell Lines IC50 MCF-7
Method: as §1, §2

[5] = system: human gastric carcinoma cells BGC-823; test: MTT anti-proliferative assay, BGC-823; details: 72 h treatment, read-out: Cell Lines IC50 BGC-823
Method: as §1, §2

[6] = system: human promyelocytic leukemia cells HL-60; test: MTT anti-proliferative assay, HL-60; details: 72 h treatment, read-out: Cell Lines IC50 HL-60
Method: as §1, §2

pIC50 [1]	pIC50 [2]	pIC50 [3]	pIC50 [4]	pIC50 [5]	pIC50 [6]	SMILES
4.82 to 5.19	4.91	4.98	4.82	4.95	5.19	CC=C(C)C(=O)OC1CC(C)(C)CC2C3=CCC4C5(C)CCC(OC6OC(C(=O)OC)C(O)C(OC7OC(CO)C(O)C(O)C7OC7OC(CO)C(O)C(O)C7O)C6OC6OC(CO)C(O)C(O)C6O)C(C)(C=O)C5CCC4(C)C3(C)CC(O)C12CO [Compound 1, 16α-hydroxy-22α-O-angeloyl-23α-aldehyde-28-dihydroxymethylene-olean-12-ene-3β-O-[β-D-galacto-pyranosyl-(1→2)]-[β-D-glucopyranosyl-(1→2)-β-D-galactopyranosy-(1→3)]-β-D-glucopyranosid-uronic acid methyl ester]
5.26 to 5.74	5.46	5.37	5.41	5.26	5.75	CC=C(C)C(=O)OC1CC(C)(C)CC2C3=CCC4C5(C)CCC(OC6OC(C(=O)OC)C(O)C(OC7OC(CO)C(O)C(O)C7O)C6OC6OC(CO)C(O)C(O)C6O)C(C)(C=O)C5CCC4(C)C3(C)CC(O)C12CO [Compound 2, 16α-hydroxy-22α-O-angeloyl-23α-aldehyde-28-dihydroxymethylene-olean-12-ene-3β-O-[β-D-galactopyranosyl-(1→2)]-[β-D-galactopyranosyl-(1→3)]-β-D-glucopyranosiduronic acid methyl ester]
